Measured values published in patent publication US5861413A, “2-oxo- and 2-thio-1,2-dihydroquinolinyl-oxazolidinones” (Bayer Aktiengesellschaft, priority 1996, dated 1999).
In brackets after ≈: the same amount, converted by molar mass. Like-named read-outs stand apart in the source and are kept apart here.

Experiments:
Type in all cases: cell-based
Staph. 133 = test: MIC by serial dilution on Iso-Sensitest agar, Staph. 133; conditions: 37° C., about 20 hours, about 10^4 colony-forming particles
Experimental: (§1) The minimum inhibitory concentrations (MIC) there determined by the serial dilution method on Iso-Sensitest agar (Oxoid). For each test substance, a number of agar plates were prepared which, at twice the dilution in each case, contained falling concentrations of the active compound. The agar plates were inoculated using a multipoint inoculator (Denley). For inoculation, overnight cultures of the pathogenic organisms were used which had previously been diluted such that each inoculation point contained about 10^4 colony-forming particles. The inoculated agar plates were incubated at 37° C., and the microbial growth was read off after about 20 hours. The MIC (μg/ml) indicates the lowest active compound concentration at which it was not possible to detect growth using the naked eye.

Staph. 48N = test: MIC by serial dilution on Iso-Sensitest agar, Staph. 48N; conditions: 37° C., about 20 hours, about 10^4 colony-forming particles
Experimental: as §1

Staph 25701 = test: MIC by serial dilution on Iso-Sensitest agar, Staph 25701; conditions: 37° C., about 20 hours, about 10^4 colony-forming particles
Experimental: as §1

Staph. 9TV = test: MIC by serial dilution on Iso-Sensitest agar, Staph. 9TV; conditions: 37° C., about 20 hours, about 10^4 colony-forming particles
Experimental: as §1

E. coli Neumann = test: MIC by serial dilution on Iso-Sensitest agar, E. coli Neumann; conditions: Escherichia coli, 37° C., about 20 hours, about 10^4 colony-forming particles
Experimental: as §1

Klebs. 57 USA = test: MIC by serial dilution on Iso-Sensitest agar, Klebs. 57 USA; conditions: 37° C., about 20 hours, about 10^4 colony-forming particles
Experimental: as §1

Psdm. Bonn = test: MIC by serial dilution on Iso-Sensitest agar, Psdm. Bonn; conditions: 37° C., about 20 hours, about 10^4 colony-forming particles
Experimental: as §1

[1] = system: Mycobacterium smegmatis DSM 43061; test: MIC by broth microdilution, Mycobacterium smegmatis DSM 43061; conditions: Mycolicibacterium smegmatis, DSM43061
Experimental: (§2) For rapidly growing mycobacteria, the MIC determination was carried out following the method of broth microdilution described by Swenson [cf. J. M. Swenson, C. Thornberry, U. A. Silcox, Rapidly growing mycobacteria. Testing of susceptibility to 34 antimicrobial agents by broth microdilution. Antimicrobial Agents and Chemotherapy Vol. 22, 186-192 (1982)]. A deviation from this was the brain-heart extract medium treated with 0.1% by volume of Tween 80.
(§3) The mycobacterial strains used wvere ordered from DSM (German Collection of Microorganisms, Brunswick). They were incubated at 37° C. in a humid chamber.
(§4) The MICs were read off after 2-4 days when the preparation-free controls were cloudy as a result of growth.

[2] = system: Mycobacterium smegmatis DSM 43465; test: MIC by broth microdilution, Mycobacterium smegmatis DSM 43465; conditions: Mycolicibacterium smegmatis, DSM43465
Experimental: as §2, §3, §4

[3] = DSM 43061, inoculum 2.20U+04 /ml, brain-heart extract medium with 0.1% Tween 80, 37° C., 2-4 days, read-out: MIC
[4] = DSM 43465, inoculum 3.10U+04 /ml, brain-heart extract medium with 0.1% Tween 80, 37° C., 2-4 days, read-out: MIC

MIC (Staph. 133) | MIC (Staph. 48N) | MIC (Staph 25701) | MIC (Staph. 9TV) | MIC (E. coli Neumann) | MIC (Klebs. 57 USA) | MIC (Psdm. Bonn) | MIC [1, 3] | MIC [2, 4] | Compound | MIC [1] | MIC [2]
2 µg/mL (≈ 6.34 µM) | 2 µg/mL (≈ 6.34 µM) | 2 µg/mL (≈ 6.34 µM) | 1 µg/mL (≈ 3.17 µM) | > 64 µg/mL | > 64 µg/mL | > 64 µg/mL | 2 µg/mL (≈ 6.34 µM) | 8 µg/mL (≈ 25.4 µM) | CC(=O)NC[C@H]1CN(c2ccc3c(ccc(=O)n3C)c2)C(=O)O1 [Example 3] |  | 
4 µg/mL (≈ 12.1 µM) | 8 µg/mL (≈ 24.3 µM) | 4 µg/mL (≈ 12.1 µM) | 2 µg/mL (≈ 6.07 µM) | > 64 µg/mL | > 64 µg/mL |  | 4 µg/mL (≈ 12.1 µM) | 8 µg/mL (≈ 24.3 µM) | CCn1c(=O)ccc2cc(N3C[C@H](CNC(C)=O)OC3=O)ccc21 [Example 4] |  | 
16 µg/mL (≈ 46.6 µM) | 16 µg/mL (≈ 46.6 µM) | 16 µg/mL (≈ 46.6 µM) | 8 µg/mL (≈ 23.3 µM) | > 64 µg/mL | > 64 µg/mL | > 64 µg/mL |  |  | CC(=O)NC[C@H]1CN(c2ccc3c(ccc(=O)n3C(C)C)c2)C(=O)O1 [Example 5] |  | 
 |  |  |  |  |  |  | 8 µg/mL (≈ 23.5 µM) | 4 µg/mL (≈ 11.8 µM) | CC(=O)NC[C@H]1CN(c2ccc3c(ccc(=O)n3CC#N)c2)C(=O)O1 [Example 6] |  | 
8 µg/mL (≈ 23.2 µM) | 8 µg/mL (≈ 23.2 µM) | 8 µg/mL (≈ 23.2 µM) | 2 µg/mL (≈ 5.79 µM) | > 32 µg/mL | > 32 µg/mL | > 32 µg/mL |  |  | CC(=O)NC[C@H]1CN(c2ccc3c(ccc(=O)n3CCO)c2)C(=O)O1 [Example 7] |  | 
8 µg/mL (≈ 21.1 µM) | 8 µg/mL (≈ 21.1 µM) | 8 µg/mL (≈ 21.1 µM) | 4 µg/mL (≈ 10.5 µM) | > 64 µg/mL | > 64 µg/mL | > 64 µg/mL |  |  | CC(=O)NC[C@H]1CN(c2ccc3c(ccc(=O)n3S(C)(=O)=O)c2)C(=O)O1 [Example 12] |  | 
 |  |  |  |  |  |  | 4 µg/mL (≈ 29.2 µM) | 1 µg/mL (≈ 7.29 µM) | NNC(=O)c1ccncc1 [Isoniazide, reference compound] |  | 
 |  |  |  |  |  |  |  |  | [H]/N=C(/N)N[C@H]1[C@H](O)[C@@H](O)[C@H](O[C@@H]2O[C@@H](C)[C@](O)(C=O)[C@H]2O[C@@H]2O[C@@H](CO)[C@H](O)[C@@H](O)[C@@H]2NC)[C@@H](N/C(N)=N\[H])[C@@H]1O [Streptomycin, reference compound] | 4 µg/mL (≈ 6.88 µM) | 4 µg/mL (≈ 6.88 µM)
